Read-outs that look alike come from different tables or passages of the source.
Columns and labels:
NSD2 SET domain [1] = target: T1, NSD2 SET domain (Homo sapiens, UniProt O96028); assay: biochemical; design: Surface plasmon resonance binding to NSD2 SET domain; conditions: binder
T1 construct: SET domain, residues 934-1241, N-terminal His tag, E. coli
T1 sequence (O96028 934-1241): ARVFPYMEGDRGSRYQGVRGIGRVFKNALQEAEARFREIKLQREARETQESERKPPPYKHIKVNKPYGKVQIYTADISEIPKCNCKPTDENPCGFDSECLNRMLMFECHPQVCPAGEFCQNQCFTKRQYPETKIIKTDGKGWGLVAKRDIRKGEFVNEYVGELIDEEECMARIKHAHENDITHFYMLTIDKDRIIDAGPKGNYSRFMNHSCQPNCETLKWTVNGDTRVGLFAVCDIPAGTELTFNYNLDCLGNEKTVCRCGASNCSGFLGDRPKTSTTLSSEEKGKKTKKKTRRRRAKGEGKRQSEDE
Protocol: To support an on-target mechanism of action for the five inhibitors, surface plasmon resonance (SPR) was used to determine whether each inhibitor interacts with the catalytic SET domain of NSD2. […] Chaetocin bound the SET domain with an apparent dissociation constant of 20 nM. Additionally, the data indicated super-stoichiometric binding, which might be due to a binding ratio higher than 1:1 that is consistent with chaetocin’s two disulfide moieties forming adducts with the NSD2 protein, or compound aggregation (data not shown) ([56]).

PRMT8 = target: T2, PRMT8 (Homo sapiens, UniProt Q9NR22); assay: HotSpot [3H]SAM filter-binding methyltransferase assay; type: biochemical
T2 construct: residues 61-394, N- and C-terminal His tags, E. coli

MLL2 Complex = MLL2 Complex (Homo sapiens, UniProt O14686); assay: as above; type: biochemical; design: gene KMT2D; complex assembled as MLL1; MLL2 here is KMT2D (NM_003482), His tag, E. coli; with WD repeat-containing protein 5; Set1/Ash2 histone methyltransferase complex subunit ASH2; Protein dpy-30 homolog
NSD2 SET domain [2] = target: T1, NSD2 SET domain; assay: SPR Biacore 8K, single-cycle kinetics, […] model; type: binding
MLL4 Complex = MLL4 Complex (Homo sapiens, UniProt Q9UMN6); assay: HotSpot [3H]SAM filter-binding methyltransferase assay; type: biochemical; design: gene KMT2B; complex assembled as MLL1; MLL4 here is KMT2B (NM_014727), His tag, E. coli; with WD repeat-containing protein 5; Set1/Ash2 histone methyltransferase complex subunit ASH2; Protein dpy-30 homolog
DOT1L = target: T3, DOT1L (Homo sapiens, UniProt Q8TEK3); assay: as above; type: biochemical
T3 construct: residues 1-416, N-terminal GST fusion, E. coli

DNMT3b = target: T4, DNMT3b (Homo sapiens, UniProt Q9UBC3); assay: as above; type: biochemical
T4 construct: residues 2-853, N-terminal GST fusion, insect cell/baculovirus

EZH1 Complex = target: T5, EZH1 Complex (Homo sapiens, UniProt Q92800); assay: as above; type: biochemical
T5 construct: five-member complex, Flag-EED, other subunits His-tagged, insect cells; with Zinc finger protein AEBP2; Polycomb protein EED; Polycomb protein SUZ12

PRMT1 = target: T6, PRMT1 (Homo sapiens, UniProt Q99873); assay: as above; type: biochemical
T6 construct: residues 2-371, N-terminal GST fusion, E. coli

PRMT3 = PRMT3 (Homo sapiens, UniProt O60678); assay: as above; type: biochemical; design: residues 2-531, N-terminal His tag, E. coli
DNMT3b/3L = DNMT3b/3L (Homo sapiens, UniProt Q9UBC3); assay: biochemical
SET7/9 = target: T7, SET7/9 (Homo sapiens, UniProt Q8WTS6); assay: biochemical
T7 construct: gene SETD7
T7 sequence (Q8WTS6 1-366): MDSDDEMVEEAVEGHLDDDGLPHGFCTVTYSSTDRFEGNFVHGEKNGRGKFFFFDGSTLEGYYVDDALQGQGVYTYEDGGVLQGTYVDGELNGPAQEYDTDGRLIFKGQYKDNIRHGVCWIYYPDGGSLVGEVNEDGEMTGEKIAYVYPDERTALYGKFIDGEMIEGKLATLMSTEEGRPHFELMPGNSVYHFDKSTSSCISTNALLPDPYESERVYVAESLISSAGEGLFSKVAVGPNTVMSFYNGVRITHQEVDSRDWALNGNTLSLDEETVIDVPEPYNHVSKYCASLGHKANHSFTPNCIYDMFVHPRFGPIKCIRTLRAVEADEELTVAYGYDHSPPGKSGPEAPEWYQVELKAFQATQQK

[3] = read-out: DA3003-1 IC50, inhibitor
[4] = histone H4, […] SAM, pH […] MgCl2, […] DTT, […] °C, single experiment
[5] = nucleosomes, […] SAM, pH […] MgCl2, […] DTT, […] °C, single experiment

T6 sequence (Q99873 2-353 isoform Q99873-3): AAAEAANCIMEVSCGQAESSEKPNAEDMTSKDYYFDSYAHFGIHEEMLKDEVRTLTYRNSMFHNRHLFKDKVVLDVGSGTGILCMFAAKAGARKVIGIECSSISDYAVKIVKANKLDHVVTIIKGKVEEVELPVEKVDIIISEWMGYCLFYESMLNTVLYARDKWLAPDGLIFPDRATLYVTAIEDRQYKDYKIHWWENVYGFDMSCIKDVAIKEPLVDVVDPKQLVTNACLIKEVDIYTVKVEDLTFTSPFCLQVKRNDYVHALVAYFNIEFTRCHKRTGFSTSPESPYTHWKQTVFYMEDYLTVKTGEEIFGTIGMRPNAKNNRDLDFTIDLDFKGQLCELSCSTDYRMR
T5 sequence (Q92800 2-747): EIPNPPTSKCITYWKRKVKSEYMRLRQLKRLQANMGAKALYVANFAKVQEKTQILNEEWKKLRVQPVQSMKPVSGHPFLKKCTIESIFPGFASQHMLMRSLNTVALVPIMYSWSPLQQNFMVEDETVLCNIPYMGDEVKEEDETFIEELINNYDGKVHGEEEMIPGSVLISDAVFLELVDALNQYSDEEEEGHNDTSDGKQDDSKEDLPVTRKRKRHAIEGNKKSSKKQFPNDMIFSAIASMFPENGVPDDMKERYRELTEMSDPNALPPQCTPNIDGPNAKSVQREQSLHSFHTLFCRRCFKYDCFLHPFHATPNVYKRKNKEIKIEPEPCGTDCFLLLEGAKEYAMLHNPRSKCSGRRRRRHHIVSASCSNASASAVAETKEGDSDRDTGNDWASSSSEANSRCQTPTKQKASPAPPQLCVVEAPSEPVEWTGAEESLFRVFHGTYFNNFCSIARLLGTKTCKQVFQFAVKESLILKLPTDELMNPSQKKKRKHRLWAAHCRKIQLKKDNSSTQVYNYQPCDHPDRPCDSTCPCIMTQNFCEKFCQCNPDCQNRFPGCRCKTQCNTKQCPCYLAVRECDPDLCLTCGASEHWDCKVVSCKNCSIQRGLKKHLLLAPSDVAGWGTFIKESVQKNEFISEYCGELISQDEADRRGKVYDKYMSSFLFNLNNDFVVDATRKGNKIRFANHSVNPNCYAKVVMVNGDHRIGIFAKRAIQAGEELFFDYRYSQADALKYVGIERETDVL
T5 sequence (O75530 2-441 partner): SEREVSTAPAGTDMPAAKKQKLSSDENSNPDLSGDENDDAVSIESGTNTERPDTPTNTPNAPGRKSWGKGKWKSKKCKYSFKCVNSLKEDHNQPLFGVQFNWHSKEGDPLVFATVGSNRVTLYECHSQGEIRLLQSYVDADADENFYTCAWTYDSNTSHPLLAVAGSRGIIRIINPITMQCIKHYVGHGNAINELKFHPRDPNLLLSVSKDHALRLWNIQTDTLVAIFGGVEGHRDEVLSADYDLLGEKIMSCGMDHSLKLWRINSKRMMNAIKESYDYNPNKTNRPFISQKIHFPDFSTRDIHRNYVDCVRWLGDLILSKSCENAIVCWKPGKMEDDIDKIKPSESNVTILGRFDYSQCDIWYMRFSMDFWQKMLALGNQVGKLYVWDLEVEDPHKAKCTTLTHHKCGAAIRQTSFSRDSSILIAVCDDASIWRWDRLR
T5 sequence (Q15022 2-739 partner): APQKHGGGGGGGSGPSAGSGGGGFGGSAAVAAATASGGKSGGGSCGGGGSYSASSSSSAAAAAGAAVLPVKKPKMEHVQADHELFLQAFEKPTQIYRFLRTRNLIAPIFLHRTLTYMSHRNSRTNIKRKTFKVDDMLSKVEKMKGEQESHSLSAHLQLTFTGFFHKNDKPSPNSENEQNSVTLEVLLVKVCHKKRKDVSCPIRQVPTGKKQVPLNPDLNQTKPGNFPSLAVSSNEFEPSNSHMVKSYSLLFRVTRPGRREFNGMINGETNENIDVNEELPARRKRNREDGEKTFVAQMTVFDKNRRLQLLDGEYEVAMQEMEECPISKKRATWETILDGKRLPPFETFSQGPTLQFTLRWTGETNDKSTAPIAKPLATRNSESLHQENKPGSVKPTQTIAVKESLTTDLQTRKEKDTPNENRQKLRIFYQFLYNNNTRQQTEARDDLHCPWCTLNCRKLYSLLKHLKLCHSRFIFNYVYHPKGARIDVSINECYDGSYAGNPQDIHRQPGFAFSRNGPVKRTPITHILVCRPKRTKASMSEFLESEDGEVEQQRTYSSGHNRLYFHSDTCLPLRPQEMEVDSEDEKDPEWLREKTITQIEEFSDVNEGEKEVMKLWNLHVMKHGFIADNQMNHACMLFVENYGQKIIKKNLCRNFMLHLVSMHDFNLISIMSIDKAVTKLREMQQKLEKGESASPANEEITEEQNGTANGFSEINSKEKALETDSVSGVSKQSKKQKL
T5 sequence (Q09028 2-425 partner): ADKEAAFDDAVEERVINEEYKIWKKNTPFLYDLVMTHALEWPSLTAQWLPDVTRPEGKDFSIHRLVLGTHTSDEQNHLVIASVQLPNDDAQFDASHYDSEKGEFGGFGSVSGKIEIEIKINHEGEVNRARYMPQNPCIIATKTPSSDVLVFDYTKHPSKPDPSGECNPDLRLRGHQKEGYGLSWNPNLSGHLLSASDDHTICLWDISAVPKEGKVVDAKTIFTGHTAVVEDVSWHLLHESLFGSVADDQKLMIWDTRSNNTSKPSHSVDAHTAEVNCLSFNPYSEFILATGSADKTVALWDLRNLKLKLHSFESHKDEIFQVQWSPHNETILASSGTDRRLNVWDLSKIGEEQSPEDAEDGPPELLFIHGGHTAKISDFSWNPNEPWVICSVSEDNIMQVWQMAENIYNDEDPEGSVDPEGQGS
T5 sequence (Q6ZN18 2-517 partner): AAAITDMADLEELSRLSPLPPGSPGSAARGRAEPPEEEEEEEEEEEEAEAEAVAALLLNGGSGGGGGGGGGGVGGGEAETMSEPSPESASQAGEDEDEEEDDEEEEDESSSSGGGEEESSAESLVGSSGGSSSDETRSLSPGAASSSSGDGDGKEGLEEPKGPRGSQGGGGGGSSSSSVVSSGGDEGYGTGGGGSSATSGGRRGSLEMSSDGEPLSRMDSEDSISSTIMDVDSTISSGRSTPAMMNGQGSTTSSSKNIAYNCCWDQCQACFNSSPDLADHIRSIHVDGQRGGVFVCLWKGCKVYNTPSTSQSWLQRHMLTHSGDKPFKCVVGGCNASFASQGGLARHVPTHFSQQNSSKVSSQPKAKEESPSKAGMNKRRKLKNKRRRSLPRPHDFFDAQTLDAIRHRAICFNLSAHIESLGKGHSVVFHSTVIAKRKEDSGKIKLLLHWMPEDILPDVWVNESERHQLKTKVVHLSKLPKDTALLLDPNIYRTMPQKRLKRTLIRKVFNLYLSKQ
PRMT3, sequence (O60678 2-531): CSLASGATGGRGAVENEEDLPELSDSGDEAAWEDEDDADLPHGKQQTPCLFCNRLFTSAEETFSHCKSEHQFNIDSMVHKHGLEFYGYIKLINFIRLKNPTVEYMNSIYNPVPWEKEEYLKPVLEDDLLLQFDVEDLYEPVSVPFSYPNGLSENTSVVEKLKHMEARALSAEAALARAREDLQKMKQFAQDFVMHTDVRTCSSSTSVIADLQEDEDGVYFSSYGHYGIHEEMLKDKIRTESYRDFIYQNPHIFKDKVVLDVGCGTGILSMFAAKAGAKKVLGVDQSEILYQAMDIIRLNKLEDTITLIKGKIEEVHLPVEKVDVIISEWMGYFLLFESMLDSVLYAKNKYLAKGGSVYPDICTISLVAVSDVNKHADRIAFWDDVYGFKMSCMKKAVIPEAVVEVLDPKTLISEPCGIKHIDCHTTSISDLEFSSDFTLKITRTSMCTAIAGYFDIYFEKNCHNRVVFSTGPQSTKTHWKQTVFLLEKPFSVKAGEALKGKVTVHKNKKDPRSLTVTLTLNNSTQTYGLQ
T2 sequence (Q9NR22 61-394): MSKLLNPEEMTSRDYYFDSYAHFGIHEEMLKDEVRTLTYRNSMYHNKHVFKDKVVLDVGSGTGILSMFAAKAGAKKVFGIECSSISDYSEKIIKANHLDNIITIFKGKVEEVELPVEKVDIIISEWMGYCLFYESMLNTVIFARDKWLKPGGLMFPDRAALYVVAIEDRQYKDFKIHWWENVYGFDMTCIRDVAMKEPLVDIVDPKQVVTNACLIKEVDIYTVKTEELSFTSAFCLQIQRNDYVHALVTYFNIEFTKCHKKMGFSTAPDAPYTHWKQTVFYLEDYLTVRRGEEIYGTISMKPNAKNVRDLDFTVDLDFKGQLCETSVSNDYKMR
T3 sequence (Q8TEK3 1-416): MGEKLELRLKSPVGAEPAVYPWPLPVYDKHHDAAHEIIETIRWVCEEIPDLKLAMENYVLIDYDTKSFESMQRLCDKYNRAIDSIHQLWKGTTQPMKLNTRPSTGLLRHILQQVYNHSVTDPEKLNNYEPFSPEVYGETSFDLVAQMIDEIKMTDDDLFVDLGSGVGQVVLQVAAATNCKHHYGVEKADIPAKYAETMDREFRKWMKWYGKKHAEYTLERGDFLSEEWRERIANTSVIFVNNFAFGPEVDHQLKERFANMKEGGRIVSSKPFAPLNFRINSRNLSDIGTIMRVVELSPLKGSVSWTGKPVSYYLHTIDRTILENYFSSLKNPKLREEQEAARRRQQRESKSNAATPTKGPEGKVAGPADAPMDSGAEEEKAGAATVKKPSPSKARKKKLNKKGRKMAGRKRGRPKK

CC1(C)CCC(CN2CCN(c3ccc(C(=O)NS(=O)(=O)c4ccc(NCC5CCOCC5)c([N+](=O)[O-])c4)c(Oc4cnc5[nH]ccc5c4)c3)CC2)=C(c2ccc(Cl)cc2)C1 [ABT-199]
koff (NSD2 SET domain [1]): 0.0364 s⁻¹ | kon (NSD2 SET domain [1]): 4390 M⁻¹ s⁻¹ | IC50 (PRMT8): 34 µM | IC50 (MLL2 Complex): 4.6 µM | Kd (NSD2 SET domain [2]): 8.3 µM | IC50 (MLL4 Complex): 0.52 µM | IC50 (DOT1L): 2 µM | IC50 (DNMT3b): > 100 µM | IC50 (EZH1 Complex): 66 µM | IC50 (PRMT1): 83 µM | IC50 (PRMT3): 36 µM

O=C1C(Cl)=C(NCCN2CCOCC2)C(=O)c2ncccc21 [DA3003-1]
Kd (NSD2 SET domain [1]): 0.37 µM | IC50 (DNMT3b/3L; [3]): 0.72 µM | IC50 (SET7/9; [3]): 1.4 µM

COc1cccc(-n2nc(C(=O)O)cc2-c2ccc(C3CCCCC3)c(Cl)c2)c1 [TC LPA5 4]
IC50 (PRMT8; [4]): 71 µM | IC50 (MLL2 Complex; [5]): 18 µM | IC50 (DNMT3b/3L): 30 µM | Kd (NSD2 SET domain [2]; immobilized SET domain, pH […] °C, […] MgCl2, […] TCEP, […] DMSO): 8.4 µM | IC50 (MLL4 Complex; [5]): 1 µM | IC50 (DOT1L; [5]): 8.2 µM | IC50 (DNMT3b; lambda DNA, […] SAM, pH […] EDTA, […] DTT, […] °C, single experiment): 24 µM | IC50 (EZH1 Complex; core histone, […] SAM, pH […] EDTA, […] DTT, […] °C, single experiment): 40 µM | IC50 (SET7/9): 52 µM | IC50 (PRMT1; [4]): 68 µM | IC50 (PRMT3; [4]): 5.7 µM
